Test [1] has as its system wild-type HIV-1 (HIV-1LAI) in H9 cells (non-permissive). Description: microbe, parasite or virus in culture. Format: cell-based. Particulars: for pIC50: Human immunodeficiency virus 1, H9, read-out: IC50, anti-HIV-1 activity, non-permissive H9 cells.
The subject of test [2] is wild-type HIV-1 (HIV-1LAI) in MT-4 cells (permissive). Description: Antiviral activity assay: wild-type HIV-1 in permissive MT4 cells, reverse transcriptase activity in culture supernatants. Type of test: cell-based.
Setting [3] is: Human immunodeficiency virus 1, H9, read-out: Antiviral activity (IC50 μM) H9, Table 2, wild-type HIV-1, non-permissive H9 cells.
The mark [4] stands for this setting: Human immunodeficiency virus 1, H9, read-out: Antiviral activity (IC50 μM) H9 Cells, Table 4, wild-type HIV-1, non-permissive H9 cells.
Setting [5] is: Human immunodeficiency virus 1, H9, read-out: Antiviral activity (IC50 μM) H9 Cells, Table 7, wild-type HIV-1, non-permissive H9 cells.
[6] abbreviates: Human immunodeficiency virus 1, H9, read-out: Antiviral activity (IC50 μM) H9 cells, Table 5, wild-type HIV-1, non-permissive H9 cells.
[7] abbreviates: Human immunodeficiency virus 1, H9, read-out: Antiviral activity (IC50 μM) H9 cells, Table 8, wild-type HIV-1, non-permissive H9 cells.
The mark [8] stands for this setting: Human immunodeficiency virus 1, H9, read-out: Antiviral activity (IC50 μM) H9 cells, wild-type HIV-1 (HIV-1LAI), H9 cells (non-permissive), RT activity in culture supernatants, compounds 1 to 50 μM.
[9] abbreviates: Human immunodeficiency virus 1, MT4, Table 2, wild-type HIV-1, permissive MT4 cells, read-out: Antiviral activity (IC50 μM) MT4.
The mark [10] stands for this setting: Human immunodeficiency virus 1, MT4, wild-type HIV-1 (HIV-1LAI), MT4 cells (permissive), RT activity in culture supernatants, compounds 1 to 50 μM, read-out: Antiviral activity (IC50 μM) MT4 cells.

For orientation: IC50 means the point on the concentration scale where inhibition reaches its midpoint. One may read the pIC50 as the negative decadic logarithm of the IC50, by convention in mol/L.

pIC50: −log10 of the molar value. Where two headings read alike, the source gives them in different places.

`COc1cccc(-n2cc(-c3ccccc3S(=O)(=O)c3ccc(N)cc3)nn2)c1OC` [Compound 3ey, 4-((2-(1-(2,3-Dimethoxyphenyl)-1H-1,2,3-triazol-4-yl)phenyl)sulfonyl)aniline]: the IC50 in test [1] (setting [3]), in test [1] (setting [4]), in test [1] (setting [5]), in test [1] (setting [6]), in test [1] (setting [7]) and in test [1] (setting [8]) was 12.4 µM in each case. Besides, the IC50 in test [2] (setting [9]) and in test [2] (setting [10]) was greater than 50 µM each time.
In the case of `COc1cccc(-n2cc(-c3ccccc3Sc3ccc(C(=O)O)cc3)nn2)c1OC` [Compound 3fx, 4-((2-(1-(2,3-Dimethoxyphenyl)-1H-1,2,3-triazol-4-yl)phenyl)thio)benzoic Acid], the IC50 in test [1] (setting [3]), in test [1] (setting [4]), in test [1] (setting [5]), in test [1] (setting [6]), in test [1] (setting [7]) and in test [1] (setting [8]) was 2.8 µM each time. Further, the IC50 in test [2] (setting [9]) and in test [2] (setting [10]) was greater than 50 µM in each case. Further, the pIC50 in test [1] was 5.52 to 6.00.
On to `COc1cccc(-n2cc(-c3ccccc3S(=O)(=O)c3ccc(C(=O)O)cc3)nn2)c1OC` [Compound 3fy, 4-((2-(1-(2,3-Dimethoxyphenyl)-1H-1,2,3-triazol-4-yl)phenyl)sulfonyl)benzoic Acid], for which the IC50 in test [1] (setting [3]), in test [1] (setting [4]), in test [1] (setting [5]), in test [1] (setting [6]), in test [1] (setting [7]) and in test [1] (setting [8]) was 1.4 µM in each case. Moreover, the IC50 in test [2] (setting [9]) and in test [2] (setting [10]) was greater than 50 µM each time. The pIC50 in test [1] was 5.52 to 6.00.
Turning to `COc1ccc(-n2cc(-c3ccccc3S(=O)(=O)c3ccc([N+](=O)[O-])cc3)nn2)c(OC)c1` [Compound 4ay, 1-(2,4-Dimethoxyphenyl)-4-(2-((4-nitrophenyl)sulfonyl)phenyl)-1H-1,2,3-triazole], the IC50 in test [1] (setting [3]), in test [1] (setting [6]), in test [1] (setting [7]), in test [1] (setting [8]), in test [2] (setting [9]) and in test [2] (setting [10]) was greater than 50 µM in each case.
Take `COc1ccc(S(=O)(=O)c2ccccc2-c2cn(-c3ccc(OC)cc3OC)nn2)cc1` [Compound 4cy, 1-(2,4-Dimethoxyphenyl)-4-(2-((4-methoxyphenyl)sulfonyl)phenyl)-1H-1,2,3-triazole]: the IC50 in test [1] (setting [3]), in test [1] (setting [6]), in test [1] (setting [7]), in test [1] (setting [8]), in test [2] (setting [9]) and in test [2] (setting [10]) was greater than 50 µM throughout.
On to `COc1ccc(-n2cc(-c3ccccc3S(=O)(=O)c3ccc(C(F)(F)F)cc3)nn2)c(OC)c1` [Compound 4dy, 1-(2,4-Dimethoxyphenyl)-4-(2-((4-(trifluoromethyl)phenyl)sulfonyl)phenyl)-1H-1,2,3-triazole], for which the IC50 in test [1] (setting [3]), in test [1] (setting [4]), in test [1] (setting [5]), in test [1] (setting [6]), in test [1] (setting [7]) and in test [1] (setting [8]) was 12 µM in each case. In addition, the IC50 in test [2] (setting [9]) and in test [2] (setting [10]) was greater than 50 µM each time.
Turning to `COc1ccc(-n2cc(-c3ccccc3Sc3ccc(C(=O)O)cc3)nn2)c(OC)c1` [Compound 4fx, 4-((2-(1-(2,4-Dimethoxyphenyl)-1H-1,2,3-triazol-4-yl)phenyl)thio)benzoic Acid], the IC50 in test [1] (setting [3]), in test [1] (setting [4]), in test [1] (setting [5]), in test [1] (setting [6]), in test [1] (setting [7]) and in test [1] (setting [8]) was 7.1 µM each time. The IC50 in test [2] (setting [9]) and in test [2] (setting [10]) was greater than 50 µM in each case.
On to `COC(=O)c1ccc(S(=O)(=O)c2ccccc2-c2cn(-c3cc(OC)ccc3OC)nn2)cc1` [Compound 5by, Methyl 4-((2-(1-(2,5-dimethoxyphenyl)-1H-1,2,3-triazol-4-yl)phenyl)sulfonyl)benzoate], for which the IC50 in test [1] (setting [3]), in test [1] (setting [4]), in test [1] (setting [5]), in test [1] (setting [6]), in test [1] (setting [7]) and in test [1] (setting [8]) was 4.6 µM in each case. In addition, the IC50 in test [2] (setting [9]) and in test [2] (setting [10]) was greater than 50 µM each time.
As for `COc1ccc(Sc2ccccc2-c2cn(-c3cc(OC)ccc3OC)nn2)cc1` [Compound 5cx, 1-(2,5-Dimethoxyphenyl)-4-(2-((4-methoxyphenyl)thio)phenyl)-1H-1,2,3-triazole], the IC50 in test [1] (setting [3]), in test [1] (setting [4]), in test [1] (setting [5]), in test [1] (setting [6]), in test [1] (setting [7]) and in test [1] (setting [8]) was 15.7 µM in each case. Moreover, the IC50 in test [2] (setting [9]) and in test [2] (setting [10]) was greater than 50 µM in each case.
With `COc1ccc(S(=O)(=O)c2ccccc2-c2cn(-c3cc(OC)ccc3OC)nn2)cc1` [Compound 5cy, 1-(2,5-Dimethoxyphenyl)-4-(2-((4-methoxyphenyl)sulfonyl)phenyl)-1H-1,2,3-triazole], the IC50 in test [1] (setting [3]), in test [1] (setting [6]), in test [1] (setting [7]), in test [1] (setting [8]), in test [2] (setting [9]) and in test [2] (setting [10]) was greater than 50 µM in each case.
As to `COc1ccc(OC)c(-n2cc(-c3ccccc3Sc3ccc(C(F)(F)F)cc3)nn2)c1` [Compound 5dx, 1-(2,5-Dimethoxyphenyl)-4-(2-((4-(trifluoromethyl)phenyl)thio)phenyl)-1H-1,2,3-triazole], the IC50 in test [1] (setting [3]) is 46.4 µM; in test [1] (setting [6]), 46.4 µM; in test [1] (setting [7]), 46.4 µM; in test [1] (setting [8]), 46.4 µM; in test [2] (setting [9]), greater than 50 µM; in test [2] (setting [10]) it was greater than 50 µM.
Regarding `COc1ccc(OC)c(-n2cc(-c3ccccc3Sc3ccc(N)cc3)nn2)c1` [Compound 5ex, 4-((2-(1-(2,5-Dimethoxyphenyl)-1H-1,2,3-triazol-4-yl)phenyl)thio)aniline], the IC50 in test [1] (setting [3]), in test [1] (setting [6]), in test [1] (setting [7]), in test [1] (setting [8]), in test [2] (setting [9]) and in test [2] (setting [10]) was greater than 50 µM throughout.
For the compound `COc1ccc(OC)c(-n2cc(-c3ccccc3Sc3ccc(C(=O)O)cc3)nn2)c1` [Compound 5fx, 4-((2-(1-(2,5-Dimethoxyphenyl)-1H-1,2,3-triazol-4-yl)phenyl)thio)benzoic Acid], the IC50 in test [1] (setting [3]), in test [1] (setting [4]), in test [1] (setting [5]), in test [1] (setting [6]), in test [1] (setting [7]) and in test [1] (setting [8]) was 4.5 µM each time. The IC50 in test [2] (setting [9]) and in test [2] (setting [10]) was greater than 50 µM each time.
With `COc1ccc(OC)c(-n2cc(-c3ccccc3S(=O)(=O)c3ccc(C(=O)O)cc3)nn2)c1` [Compound 5fy, 4-((2-(1-(2,5-Dimethoxyphenyl)-1H-1,2,3-triazol-4-yl)phenyl)sulfonyl)benzoic Acid], the IC50 in test [1] (setting [3]), in test [1] (setting [6]), in test [1] (setting [7]), in test [1] (setting [8]), in test [2] (setting [9]) and in test [2] (setting [10]) was greater than 50 µM in each case.
Consider `COc1cccc(OC)c1-n1cc(-c2ccccc2S(=O)(=O)c2ccc([N+](=O)[O-])cc2)nn1` [Compound 6ay, 1-(2,6-Dimethoxyphenyl)-4-(2-((4-nitrophenyl)sulfonyl)phenyl)-1H-1,2,3-triazole], for which the IC50 in test [1] (setting [3]), in test [1] (setting [6]), in test [1] (setting [7]), in test [1] (setting [8]), in test [2] (setting [9]) and in test [2] (setting [10]) was greater than 50 µM throughout.
As for `COC(=O)c1ccc(S(=O)(=O)c2ccccc2-c2cn(-c3c(OC)cccc3OC)nn2)cc1` [Compound 6by, Methyl 4-((2-(1-(2,6-dimethoxyphenyl)-1H-1,2,3-triazol-4-yl)phenyl)sulfonyl)benzoate], the IC50 in test [1] (setting [3]), in test [1] (setting [6]), in test [1] (setting [7]), in test [1] (setting [8]), in test [2] (setting [9]) and in test [2] (setting [10]) was greater than 50 µM in each case.
On to `COc1ccc(S(=O)(=O)c2ccccc2-c2cn(-c3c(OC)cccc3OC)nn2)cc1` [Compound 6cy, 1-(2,6-Dimethoxyphenyl)-4-(2-((4-methoxyphenyl)sulfonyl)phenyl)-1H-1,2,3-triazole], for which the half-inhibitory concentration (IC50) in test [1] (setting [3]), in test [1] (setting [6]), in test [1] (setting [7]), in test [1] (setting [8]), in test [2] (setting [9]) and in test [2] (setting [10]) was greater than 50 µM throughout.
Regarding `COc1cccc(OC)c1-n1cc(-c2ccccc2S(=O)(=O)c2ccc(N)cc2)nn1` [Compound 6ey, 4-((2-(1-(2,6-Dimethoxyphenyl)-1H-1,2,3-triazol-4-yl)phenyl)sulfonyl)aniline], the IC50 in test [1] (setting [3]), in test [1] (setting [4]), in test [1] (setting [5]), in test [1] (setting [6]), in test [1] (setting [7]) and in test [1] (setting [8]) was 1.5 µM throughout. Moreover, the IC50 in test [2] (setting [9]) and in test [2] (setting [10]) was greater than 50 µM in each case. Also, the pIC50 in test [1] is 5.52 to 6.00.

(Values after US11136301B2, “Broad spectrum antiviral compounds and uses thereof” (The Regents Of The University Of California, priority 2015, dated 2021).)
